Test results taken from patent publication US9844217B2, “Allomone repulsive and kairomone attractive compositions for controlling arachnids” (Fideline, priority 2002, dated 2017).

System: chicken mites
Test: Tests for resistance to other miticides
Design: species or system Dermanyssus gallinae
Conditions: for % deaths 1× dose: 1× the dose on the product's instructions; for % deaths 4× dose: 4× the commercial dose; for % deaths 8× dose: 8× the commercial dose; for % deaths 16× dose: 16× the commercial dose; for % deaths 32× Dose: 32× the commercial dose
Text: The doses were chosen at 1 to 32 times the dose commercially given on the products' instructions.

SMILES | % deaths 1× dose [%] | % deaths 4× dose [%] | % deaths 8× dose [%] | % deaths 16× dose [%] | % deaths 32× Dose [%] | % deaths 4× dose (listed as Aphamethrine) [%] | % deaths 1× dose (listed as Amitraze)
COP(=O)(OC)C(O)C(Cl)(Cl)Cl (stereo not drawn) [Trichlorfon] | 20.4 | 39.7 | 34.4 | 80.8 | 94.4 | – | –
COP(=O)(OC)SCn1c(=O)oc2cc(Cl)cnc21 [Azamethiphos] | 30.0 | 43.3 | 54.8 | 100.00 | 97.8 | – | –
CC1(C)C(C=C(Cl)Cl)C1C(=O)OC(C#N)c1cccc(Oc2ccccc2)c1 (stereo not drawn) [Aplhamethrine] | 48.1 | 85.2 | 97.0 | 98.9 | 99.6 | 85 | –
Cc1ccc(/N=C/N(C)/C=N/c2ccc(C)cc2C)c(C)c1 [Amitraz] | 97.4 | 98.5 | 100.00 | 100.00 | 100.0 | – | most efficient miticide
CNC(=O)Oc1cccc2ccccc12 [Carbaryl] | 19.3 | 37.8 | 64.4 | 91.1 | 97.8 | – | –
